# Data as given in patent publication US10688099B2, “Methods for modulating the amount of RNA transcripts” (PTC Therapeutics, Inc., priority 2013, dated 2020).
# Tested on: RNA isoforms in PNN 1-46 SMA type I patient-derived fibroblasts
# Assay: RNA Abundance Modulation (RNA isoform abundance, iFPM, HiSeq RNA sequencing)
# Assay type: cell-based, human
# Conditions: 24 hrs, PNN 1-46 fibroblasts
# Method: Cells from a cell line of interest are cultured in conditions sufficient to yield the number of cells capable of generating enough RNA for subsequent sequencing steps. Cells from the tested cell line are contacted with a compound described herein.
# To culture said cells, they are seeded, at appropriate concentrations in a volume of media in a cell culture container and incubated for 4, 5, 6, 7, 8, 9, 10, or more hours. A concentrated solution of compound in a vehicle (e.g., DMSO) is then added in sufficient volume to result in the intended final concentration of the compound, for example 100 nM, 500 nM, 1 μM, 5 μM, 10 μM, 15 μM, 20 μM, or more. The cells may also be treated with vehicle alone, as a control. A number of replicates of each concentration or control may be made (e.g., 2 replicates). The cells are then incubated at a constant temperature appropriate for cell culture of the particular cell line (e.g., 37° C.) for 6, 12, 18, 24, 48, or more hours. After incubation, the growth medium is removed and the cells are washed with the appropriate buffer (e.g., PBS). Cells are then removed from adherence to the cell culture container by treatment with a solution containing trypsin, and the trypsin subsequently quenched with the appropriate volume of buffer (e.g., DMEM-FBS). The cells are then pelleted with gentle centrifugation (e.g., ≤90×g centrifugal force) and resuspended in a buffer to lyse the cells for extraction of RNA. The cell lysates may then be frozen (e.g., at −80° C.) or, alternately, may immediately be used in a procedure to purify the RNA (e.g. by use of the RNEASY PLUS® minikit). The RNA from cell lysates is eluted in the appropriate volume of buffer (e.g., RNEASE-FREE H2O®). The resulting purified RNA may then be sequenced (e.g., using RNASeq) or analyzed using a human exon array (e.g., by GENECHIP® human exon array) to determine changes in the RNA levels in those cells treated with compound compared to those cells treated only with DMSO. The purified RNA may also be quantified by other methods known in the art.
# Using the RNA data obtained from sequencing, exon array, or other methods, a statistical analysis can reveal changes in the RNA levels of compound-treated compared with control. For example, t-test p-values may be calculated for the data obtained through sequencing and exon array methods in order to compare compound-treated cells to those treated with the DMSO control. […] Analysis of the sequencing and exon array data may then also yield predictions about the cause of the aberrant amount of an RNA transcript in the cells (e.g., perturbation of RNA splicing, RNA transcription, or RNA stability). These predictions may be further confirmed by methods known in the art. For example, RT-PCR and RT-qPCR may be used to confirm the change in amount of RNA transcripts for one or more particular transcripts of interest.
# Following the methods described above in Example 1, PNN 1-46 SMA type I patient-derived fibroblasts were treated with 300 nM or 3 μM Compounds 774 and 808 in 0.5% DMSO.
# 700,000 cells were seeded in 10 mL of medium (DMEM plus 10% FBS) in a T-75 flask. Cells were allowed to attach for at least 4 hrs, after which 50 μL of a 200× compound solution (100% DMSO) was added to each well, and the plate was incubated at 37° C. for 24 hrs.
# At the end of the incubation period, the supernatant was removed and the cells where washed with PBS. TrypLE (Invitrogen) express solution was added (e.g. 1.5 mL per one T75 flask). The flasks were incubated for 3 to 5 min at 37° C. The trypsin was then quenched, e.g., by adding 10 mL DMEM-FBS.
# Next, the cells were pelleted using gentle centrifugation without exceeding 90×g centrifugal force. The supernatant was removed and the cell pellet was re-suspended in 600 μL RLT buffer (the RLT buffer was supplemented with beta-mercaptoethanol according to the RNeasy protocol manual) by pipetting up and down until the pellet was completely dissolved […]
smiles,measurement,setting,value
Cc1cn2cc(-c3cc(=O)n4cc(N5CCN(C)CC5)ccc4n3)cc(C)c2n1 [Compound 808],RNA abundance modulation (effect on isoform fold increase),0.3 μM,modulates RNA abundance
same,RNA abundance modulation (effect on isoform fold increase),3 μM,modulates RNA abundance
